Laboratory results taken from patent publication US9180164B2, “Compounds and methods of modulating angiogenesis” (THE CLEVELAND CLINIC FOUNDATION, priority 2011, dated 2015).
Where no end group is shown, it is not given here. [ ]: non-standard residue; d: D form. Gla = N[C@@H](CC(C(=O)O)C(=O)O)C(=O)O

Assays:
[1] = test system: subcutaneously implanted tumors; assay: Progression of subcutaneously implanted tumors; assay type: in vivo, mice; details: 100 μM
Method: To the examine the effect of beta-3 integrin cytoplasmic domain inhibitory peptides on tumor progressino we subcutaneously implanted tumors in mice and then treated the mice with either 100 μM of control peptide or with equal amount of inhibiting peptide 1 (RR cyclic (NPLXK) (SEQ ID NO: 7), disulfide bridge cycle), inhibiting peptide 2 (RR cyclic (NITXR) (SEQ ID NO: 8), disulfide bridge cycle), inhibiting peptide 3 ([…] cyclic (NPLXK) (SEQ ID NO: 7), disulfide bridge cycle), inhibiting peptide 4 ([…] cyclic (NITXR) (SEQ ID NO: 8), disulfide bridge cycle), inhibiting peptide 5 (RR linear (NPLXK) (SEQ ID NO: 7)); and inhibiting peptide 6 (RR linear (NITXR) (SEQ ID NO: 8)), where X is γ-carboxyglutamic acid.

[2] = test system: human melanoma cells (WM-164); assay: Apoptosis in melanoma cells; assay type: cell-based; details: 100 μM
Method: To the examine the effect of beta-3 integrin cytoplasmic domain inhibitory peptides on tumor progressino we treated human melanoma cells (WM-164) with either 100 μM of control peptide or with equal amount of inhibiting peptide 07-240 (HIV-TAT-(NPLXK) (SEQ ID NO: 7)), inhibiting peptide 07-241 (HIV-TAT-(NPLDK) (SEQ ID NO: 9)), inhibiting peptide 07-243 (HIV-TAT-(NITXR) (SEQ ID NO: 8)), and inhibiting peptide 07-244 (HIV-TAT-(NITDR) (SEQ ID NO: 10)), where X is γ-carboxyglutamic acid.

WT mouse aortic rings = assay: Mouse aortic ring angiogenesis; assay type: cell-based; details: 50 μM, in the presence of VEGF, 1 week
Method: Thoracic aortas from WT and DiYF mice were removed under aseptic conditions and spliced into 1 mm thick rings. Thoracic aortic rings were placed between two layers of growth factor depleted Matrigel and allowed to solidify at room temperature. Matrigels were overlaid with either with DMEM or endothelial growth medium with or without VEGF (40 ng/ml). Microvessel outgrowth was visualized by phase contrast microscopy and numbers of vessels growing from each aortic ring were counted and photographed every two days using Leica phase contrast microscope.
To examine the effect of cyclic inhibiting peptides on mouse aortic ring angiogensis, thoracic aortas from WT mice were removed under aseptic conditions and spliced into 1 mm thick rings. Thoracic aortic rings were placed between two layers of growth factor depleted Matrigel and allowed to solidify at room temperature. Matrigels were administered VEGF and 50 μM control peptides or with equal amounts of inhibiting peptide 1 (RR cyclic (NPLXK) (SEQ ID NO: 39), disulfide bridge cycle), inhibiting peptide 2 (RR cyclic (NITXR) (SEQ ID NO: 40), disulfide bridge cycle), inhibiting peptide 3 (RRRKKRKRRR cyclic (NPLXK) (SEQ ID NO: 41), disulfide bridge cycle), and inhibiting peptide 4 (RRRKKRKRRR cyclic (NITXR) (SEQ ID NO: 42), disulfide bridge cycle), where X is γ-carboxyglutamic acid. Microvessel outgrowth was visualized by phase contrast microscopy and numbers of vessels growing from each aortic ring were counted and photographed every two days using Leica phase contrast microscope after 1 week.

αvβ3 integrin [3] = assay: WOW-1 binding assay, mouse lung endothelial cells; assay type: cell-based; details: DiYF EC; 20 ng/ml VEGF or 1 mM MnCl2
Method: (§1) Wild type and DiYF mouse lung endothelial cells were serum starved for 4 h and further stimulated with 20 ng/ml VEGF-165, 20 ng/ml b-FGF or 1 mm MnC12 separately. WoW-1 Fab was added at a final concentration of […], followed by addition of Fluorescein isothiocyanate (FITC) conjugated goat anti-mouse IgG at 10 μg/ml. After 30 min cells were fixed with 3.7% formaldehyde/PBS for 15 min, washed twice with 1×PBS and FACS was performed using a FACS Calibur (Becton Dickinson, San Jose, Calif.) instrument and data were analyzed using CellQuest software program.

αvβ3 integrin [4] = target: T1, αvβ3 integrin (Mus musculus, UniProt O54890+P43406); assay: WOW-1 binding assay, mouse lung endothelial cells; assay type: cell-based; details: WT EC; 20 ng/ml VEGF or 1 mM MnCl2
T1 construct: endogenous in cells; host or cells: primary mouse lung endothelial cells
T1 sequence (O54890 26-787): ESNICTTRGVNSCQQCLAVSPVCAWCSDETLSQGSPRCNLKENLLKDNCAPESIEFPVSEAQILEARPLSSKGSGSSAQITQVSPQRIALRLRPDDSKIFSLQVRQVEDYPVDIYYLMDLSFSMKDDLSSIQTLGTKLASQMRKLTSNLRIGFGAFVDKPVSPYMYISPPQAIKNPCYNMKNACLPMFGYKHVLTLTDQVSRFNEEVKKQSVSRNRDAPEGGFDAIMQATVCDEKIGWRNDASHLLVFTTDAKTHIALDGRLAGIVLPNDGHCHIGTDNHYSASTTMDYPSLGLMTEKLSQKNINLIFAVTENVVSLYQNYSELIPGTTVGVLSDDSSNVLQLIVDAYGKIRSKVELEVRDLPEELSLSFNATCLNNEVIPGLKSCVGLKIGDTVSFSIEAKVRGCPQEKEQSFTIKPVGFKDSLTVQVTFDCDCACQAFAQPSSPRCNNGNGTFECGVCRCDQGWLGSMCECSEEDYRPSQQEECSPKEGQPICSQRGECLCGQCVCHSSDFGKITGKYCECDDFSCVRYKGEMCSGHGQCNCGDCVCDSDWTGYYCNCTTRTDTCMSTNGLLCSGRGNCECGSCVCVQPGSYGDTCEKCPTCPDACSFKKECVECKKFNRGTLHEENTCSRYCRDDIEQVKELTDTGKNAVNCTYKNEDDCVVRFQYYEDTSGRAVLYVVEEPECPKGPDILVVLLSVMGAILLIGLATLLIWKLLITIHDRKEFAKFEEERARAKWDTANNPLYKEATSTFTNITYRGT
T1 sequence (P43406 31-885 limits assumed): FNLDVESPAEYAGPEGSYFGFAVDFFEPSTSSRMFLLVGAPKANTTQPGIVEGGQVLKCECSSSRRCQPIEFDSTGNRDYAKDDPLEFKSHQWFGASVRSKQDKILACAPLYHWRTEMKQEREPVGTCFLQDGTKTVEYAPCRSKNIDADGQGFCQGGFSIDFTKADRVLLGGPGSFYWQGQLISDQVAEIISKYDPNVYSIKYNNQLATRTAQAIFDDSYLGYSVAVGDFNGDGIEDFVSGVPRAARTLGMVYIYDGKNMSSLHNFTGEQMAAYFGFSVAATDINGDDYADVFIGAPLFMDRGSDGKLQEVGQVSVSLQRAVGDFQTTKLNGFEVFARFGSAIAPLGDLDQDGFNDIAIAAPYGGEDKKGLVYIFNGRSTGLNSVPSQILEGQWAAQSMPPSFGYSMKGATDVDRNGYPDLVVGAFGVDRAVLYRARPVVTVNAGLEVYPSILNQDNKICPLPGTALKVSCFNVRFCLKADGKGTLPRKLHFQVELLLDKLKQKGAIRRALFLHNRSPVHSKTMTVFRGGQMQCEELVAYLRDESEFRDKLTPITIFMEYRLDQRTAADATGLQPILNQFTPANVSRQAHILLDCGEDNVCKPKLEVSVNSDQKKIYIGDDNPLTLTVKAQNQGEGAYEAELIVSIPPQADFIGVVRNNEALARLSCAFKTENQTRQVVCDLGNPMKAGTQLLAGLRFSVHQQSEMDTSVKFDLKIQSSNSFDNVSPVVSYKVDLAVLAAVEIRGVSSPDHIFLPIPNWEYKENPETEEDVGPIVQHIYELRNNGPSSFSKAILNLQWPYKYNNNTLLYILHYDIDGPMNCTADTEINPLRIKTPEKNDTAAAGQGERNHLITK
T1 sequence (P43406 887-1044 limits assumed): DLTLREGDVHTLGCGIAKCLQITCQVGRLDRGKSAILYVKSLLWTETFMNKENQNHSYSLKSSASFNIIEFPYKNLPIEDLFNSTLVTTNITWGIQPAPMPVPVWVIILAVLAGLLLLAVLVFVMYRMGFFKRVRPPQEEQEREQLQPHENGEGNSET
Method: as §1

αvβ3 integrin [5] = assay: Fibrinogen binding assay (FACS); assay type: cell-based, mouse; details: DiYF EC; 20 ng/ml VEGF or 1 mM MnCl2
Method: (§2) To assess fibrinogen binding, semiconfluent wild type and DiYF mouse lung endothelial cells were serum starved for 4 h and further induced with 20 ng/ml VEGF-165, 20 ng/ml b-FGF or 1 mm MnC12. Fluorescein isothiocyanate (FITC)-labeled fibrinogen was added at a final concentration of 200 nM for 45 min. […] Fluorescence-activated cell sorting (FACS) was performed using a FACS Calibur (Becton Dickinson, San Jose, Calif.) and data were analyzed using CellQuest software program.

αvβ3 integrin [6] = target: T1, αvβ3 integrin; assay: Fibrinogen binding assay (FACS); assay type: cell-based; details: WT EC; 20 ng/ml VEGF or 1 mM MnCl2
Method: as §2

“RR linear (NITXR) (RRNIT[Gla]R; listed as Homo sapiens) [inhibiting peptide 6, X is γ-carboxyglutamic acid]” was tested, and the “tumor progression compared to a control” value [1] was “substantially reduced tumor progression”.

In the case of “HIV-TAT-(NITDR) (listed as Homo sapiens) [07-244]”, the “apoptosis in melanoma cells compared to a control” value (“apoptosis … compared to a control” below) [2] is reported as “induced apoptosis”.

“RRRKKRKRRR cyclic (NITXR) (RRRKKRKRRRNIT[Gla]R; disulfide (positions not given here); not fully specified; also: cyclic, closure not given here; listed as Homo sapiens) [inhibiting peptide 4, X is γ-carboxyglutamic acid]” was tested, and the “tumor progression compared to a control” value [1] was “substantially reduced tumor progression” and the “angiogenesis of the mouse aortic rings (microvessel outgrowth)” value (“angiogenesis of the mouse aortic rings” below) (WT mouse aortic rings) was “inhibited angiogenesis”.

For “HIV-TAT-(NITXR) ({HIV‑TAT}-NIT[Gla]R; not fully specified; printed as HIV-TAT-(NITXR); listed as Homo sapiens) [07-243, X is γ-carboxyglutamic acid]”, the “apoptosis … compared to a control” value [2] was “induced apoptosis”.

In the case of “RR cyclic (NPLXK) (RRNPL[Gla]K; disulfide (positions not given here); also: NPLXK part cyclic via disulfide bridge, no Cys in given letters; listed as Homo sapiens) [inhibiting peptide 1, X is γ-carboxyglutamic acid]”, the “tumor progression compared to a control” value [1] is reported as “substantially reduced tumor progression” and the “angiogenesis of the mouse aortic rings” value (WT mouse aortic rings) is reported as “inhibited angiogenesis”.

For “RRRKKRKRRR cyclic (NPLXK) (RRRKKRKRRRNPL[Gla]K; disulfide (positions not given here); not fully specified; listed as Homo sapiens) [inhibiting peptide 3, X is γ-carboxyglutamic acid]”, the “tumor progression compared to a control” value [1] was “substantially reduced tumor progression” and the “angiogenesis of the mouse aortic rings” value (WT mouse aortic rings) was “inhibited angiogenesis”.

For “HIV-TAT-(NPLXK) ({HIV‑TAT}-NPL[Gla]K; not fully specified; printed as HIV-TAT-(NPLXK); listed as Homo sapiens) [07-240, X is γ-carboxyglutamic acid]”, the “apoptosis … compared to a control” value [2] was “induced apoptosis”.

With “HIV-TAT-(NPLDK) (listed as Homo sapiens) [07-241]” the “apoptosis … compared to a control” value [2] was “induced apoptosis”.

“RR cyclic (NITXR) (RRNIT[Gla]R; disulfide (positions not given here); not fully specified; printed as RR cyclic (NITXR); also: cyclic, closure not given here; listed as Homo sapiens) [inhibiting peptide 2, X is γ-carboxyglutamic acid]” was tested, and the “tumor progression compared to a control” value [1] was “substantially reduced tumor progression” and the “angiogenesis of the mouse aortic rings” value (WT mouse aortic rings) was “inhibited angiogenesis”.

For `[Cl][Mn][Cl]` [MnCl2], the “increase in WOW-1 binding” value (αvβ3 integrin [3]) was 14 fold, the “increase in WOW-1 binding” value (αvβ3 integrin [4]) was 30 fold and the “increase of fibrinogen binding” value (αvβ3 integrin [5]) was 17 fold. The “increase of fibrinogen binding” value (αvβ3 integrin [6]) was “at least 40 fold”.
